This is an account of results in patent US6897291B1, “pH sensitive potassium channel in spermatocytes” (Icagen, Incorporated, priority 1997, dated 2005).

For one test, the target named is T1, mSlo3 (Mus musculus, UniProt O54982, V141G).
T1 construct: A full-length mSlo3 cDNA was cloned into pBSC-MXT; expressed in transfected cells; host or cells: Xenopus oocytes (cRNA injection)
T1 sequence (O54982 with tags, fused parts or gaps V141G limits assumed): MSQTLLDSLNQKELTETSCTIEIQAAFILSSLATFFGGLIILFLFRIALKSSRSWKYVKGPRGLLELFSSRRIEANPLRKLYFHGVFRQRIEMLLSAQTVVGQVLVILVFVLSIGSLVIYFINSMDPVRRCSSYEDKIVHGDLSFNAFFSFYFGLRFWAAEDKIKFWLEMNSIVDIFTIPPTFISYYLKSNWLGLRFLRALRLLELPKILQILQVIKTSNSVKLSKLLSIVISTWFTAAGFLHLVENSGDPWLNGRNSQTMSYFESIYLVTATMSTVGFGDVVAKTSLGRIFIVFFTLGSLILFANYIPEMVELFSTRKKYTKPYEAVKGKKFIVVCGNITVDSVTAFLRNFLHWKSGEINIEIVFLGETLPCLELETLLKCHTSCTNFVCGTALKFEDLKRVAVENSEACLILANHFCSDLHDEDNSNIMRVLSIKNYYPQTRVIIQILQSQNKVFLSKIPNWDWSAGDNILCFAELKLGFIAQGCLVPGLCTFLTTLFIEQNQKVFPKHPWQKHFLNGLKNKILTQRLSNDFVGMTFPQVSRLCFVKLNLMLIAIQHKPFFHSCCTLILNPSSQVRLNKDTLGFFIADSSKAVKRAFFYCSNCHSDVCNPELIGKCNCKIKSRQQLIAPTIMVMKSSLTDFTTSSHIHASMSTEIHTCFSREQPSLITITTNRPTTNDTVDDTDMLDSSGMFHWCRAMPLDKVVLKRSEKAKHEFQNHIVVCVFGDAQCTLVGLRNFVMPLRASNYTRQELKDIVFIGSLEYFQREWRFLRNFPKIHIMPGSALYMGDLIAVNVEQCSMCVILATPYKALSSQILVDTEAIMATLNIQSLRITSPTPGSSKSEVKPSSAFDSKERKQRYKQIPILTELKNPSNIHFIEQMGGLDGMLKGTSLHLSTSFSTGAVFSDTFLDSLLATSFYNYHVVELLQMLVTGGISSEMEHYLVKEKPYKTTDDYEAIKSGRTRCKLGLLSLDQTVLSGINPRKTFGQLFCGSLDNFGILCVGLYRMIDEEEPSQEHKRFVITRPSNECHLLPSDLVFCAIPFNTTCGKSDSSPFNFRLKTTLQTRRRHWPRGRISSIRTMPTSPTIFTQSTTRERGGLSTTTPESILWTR
Briefly: mSlo3 currents expressed in Xenopus oocytes, electrophysiology. The class given is cell-based. As for the experimental part: A full-length mSlo3 cDNA was cloned into pBSC-MXT, a Bluescript-derived plasmid (Stratagene) containing Xenopus β-globin 5′ and 3′ untranslated sequences. cDNA expression constructs were linearized at a unique Not-I site, and capped cRNA was synthesized using the mMessage mMachine (Ambion). Reactions were precipitated with LiCl to remove the DNA template and resuspended in nuclease-free water at a final concentration of approximately 1 mg/ml. Oocytes were prepared for injection as previously described (Wei et al., Science 248:599-603 (1990)), except for the use of a Drummond nanojector. Approximately 50 nl of RNA in nuclease-free water was injected into each oocyte. Oocytes were incubated in ND96 medium (Wei et al., 1994, supra) and analyzed 1-8 days after injection.
cRNA (40 nl at approximately […]) was injected into mature Xenopus oocytes; recordings were made 1-8 days later. For whole cell-recording, medium nd96 (concentrations in mM; 96 NaCl, 2 KCl, 1.8 CaCl2, 1 MgCl2, 5 HEPES, pH 7.5) supplemented with 1 mM DIDS (to block endogenous chloride currents) employed as bath solution, or modified as noted in figure legends. Patches were perfused with either 0 Ca^2+ EGTA solutions (160 K gluconate, 34 KOH, 10 HEPES, and 10 EGTA) or Ca^2+-containing (184 K gluconate, 10 KOH, 10 HEPES, 200 mM hemicalcium gluconate) solutions. HCl was used to adjust pH. Pipet solution contained 0.5 K gluconate, 0.5 KCl, 1.1 KOH, 10 HEPES, 159 Na gluconate, and 2 hemiMg gluconate, pH 7.1. Recording. Two-electrode voltage clamp was carried out with a TEV-200 amplifier (Dagan). Patch currents were recorded on either an Axopatch 1B or 200A amplifier (Axon), and digitized at either 3.4, 5 or 10 kHz. Data acquisition and analysis programs were CCURRENT and CQUANT (Dr. Keith Baker) or pClamp6 (Axon). Recordings were made at room temperature except tail currents which were recorded at 11° C. using a Peltier device (Cambion).

The target of a further test is mSlo1 (Mus musculus, UniProt Q08460). The note with it: mSlo1, comparison value; read-out: EC50 (sensitivity to TEA); cited from earlier work.
mSlo1, sequence (Q08460 whole entry): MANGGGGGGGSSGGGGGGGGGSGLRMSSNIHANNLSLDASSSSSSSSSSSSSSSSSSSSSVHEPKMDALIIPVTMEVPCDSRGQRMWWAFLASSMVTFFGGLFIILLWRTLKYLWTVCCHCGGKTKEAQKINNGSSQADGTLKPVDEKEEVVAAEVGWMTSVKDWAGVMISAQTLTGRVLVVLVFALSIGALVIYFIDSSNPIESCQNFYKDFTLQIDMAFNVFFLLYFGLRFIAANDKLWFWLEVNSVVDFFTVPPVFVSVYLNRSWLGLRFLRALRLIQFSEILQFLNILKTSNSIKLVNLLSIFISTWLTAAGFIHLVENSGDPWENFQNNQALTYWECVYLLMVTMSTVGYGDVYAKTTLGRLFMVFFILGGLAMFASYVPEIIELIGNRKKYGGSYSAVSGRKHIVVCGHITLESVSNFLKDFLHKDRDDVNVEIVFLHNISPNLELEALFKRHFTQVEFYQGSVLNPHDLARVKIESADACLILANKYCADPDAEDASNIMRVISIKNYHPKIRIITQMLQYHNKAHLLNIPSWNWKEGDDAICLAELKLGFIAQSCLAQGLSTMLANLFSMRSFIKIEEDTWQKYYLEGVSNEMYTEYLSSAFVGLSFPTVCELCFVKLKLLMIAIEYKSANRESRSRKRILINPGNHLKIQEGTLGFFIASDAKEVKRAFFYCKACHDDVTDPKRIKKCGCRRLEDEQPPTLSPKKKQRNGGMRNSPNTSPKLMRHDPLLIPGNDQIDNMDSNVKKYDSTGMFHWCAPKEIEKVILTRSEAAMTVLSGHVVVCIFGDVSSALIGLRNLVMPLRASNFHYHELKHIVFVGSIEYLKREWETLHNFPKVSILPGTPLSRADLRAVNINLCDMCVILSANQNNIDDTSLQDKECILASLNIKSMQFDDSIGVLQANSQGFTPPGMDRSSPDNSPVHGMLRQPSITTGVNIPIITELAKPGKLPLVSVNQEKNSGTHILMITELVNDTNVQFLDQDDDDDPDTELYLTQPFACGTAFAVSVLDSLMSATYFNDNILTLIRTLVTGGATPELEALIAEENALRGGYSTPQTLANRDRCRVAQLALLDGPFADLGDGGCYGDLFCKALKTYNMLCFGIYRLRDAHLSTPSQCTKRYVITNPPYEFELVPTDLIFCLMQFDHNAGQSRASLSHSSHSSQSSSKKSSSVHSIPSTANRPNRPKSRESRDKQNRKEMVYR

The term EC50 denotes the concentration needed to bring the measured effect to its halfway point. Turning to `CC[N+](CC)(CC)CC` [TEA], the EC50 on mSlo3 (mSlo3 expressed in Xenopus oocytes, read-out: EC50 (sensitivity to TEA)) is roughly 100 mM; at mSlo1 it was less than 0.2 mM.
charybdotoxin: in the test with mSlo3 (charybdotoxin 50 nM), the “effect on mSlo3 currents” value is on record as “did not affect”.
For the compound “iberiotoxin (QFTDVDCSVSKECWSVCKDLFGVDRGKCMGKKCRCYQ)”, in the test with mSlo3 (iberiotoxin 20 nM), the “effect on mSlo3 currents” value is on record as “did not affect”.
